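Five compound concentrations were applied to cells in 96-well plates for 48 hours; endpoints were derived by simple linear interpolation of the resulting dose-response curve. GI50: concentration for 50% inhibition of growth.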 Calls of active or inactive are those of the source. No stated cut-off is given here; in the data, active = GI50 up to about 1.1 µM and inactive = higher.
Legend:
Experiment in all cases: DTP human tumour cell line panel, 48 h
HCT-15 = tested on: HCT-15
NCI-H226 = tested on: NCI-H226
SR = tested on: SR
A549 = tested on: A549
SK-OV-3 = tested on: SK-OV-3
SF-539 = tested on: SF-539
RXF 393 = tested on: RXF 393
CCRF-CEM = tested on: CCRF-CEM
OVCAR-3 = tested on: OVCAR-3
OVCAR-8 = tested on: OVCAR-8
NCI-H522 = tested on: NCI-H522
U-251 = tested on: U-251
HT-29 = tested on: HT-29
M14 = tested on: M14
CAKI-1 = tested on: CAKI-1
UACC-257 = tested on: UACC-257
SW-620 = tested on: SW-620
EKVX = tested on: EKVX
RPMI-8226 = tested on: RPMI-8226

| Structure (SMILES) | GI50 (HCT-15) [µM] | GI50 (NCI-H226) | GI50 (SR) | GI50 (A549) | GI50 (SK-OV-3) | GI50 (SF-539) | GI50 (RXF 393) | GI50 (CCRF-CEM) | GI50 (OVCAR-3) | GI50 (OVCAR-8) | GI50 (NCI-H522) | GI50 (U-251) | GI50 (HT-29) | GI50 (M14) | GI50 (CAKI-1) | GI50 (UACC-257) | GI50 (SW-620) | GI50 (EKVX) | GI50 (RPMI-8226) |
| --- | --- | --- | --- | --- | --- | --- | --- | --- | --- | --- | --- | --- | --- | --- | --- | --- | --- | --- | --- |
| C[C@]12CCC(=O)O[C@H]1CCCCO2 | > 100 | > 100 µM (inactive) | > 100 µM (inactive) | > 100 µM (inactive) | > 100 µM (inactive) | > 100 µM (inactive) | > 100 µM (inactive) | > 100 µM (inactive) | > 100 µM (inactive) | > 100 µM (inactive) | > 100 µM (inactive) | > 100 µM (inactive) | > 100 µM (inactive) | > 100 µM (inactive) | > 100 µM (inactive) | > 100 µM (inactive) | > 100 µM (inactive) | > 100 µM (inactive) | – |
| COc1ccc(OC)c2[s+]snc12 | – | > 100 µM (inactive) | 64.9 µM (inactive) | 40.1 µM (inactive) | > 100 µM (inactive) | 21.4 µM (inactive) | 72.4 µM (inactive) | 36.1 µM (inactive) | 34.4 µM (inactive) | 31.7 µM (inactive) | 47.8 µM (inactive) | 28 µM (inactive) | > 100 µM (inactive) | 63.2 µM (inactive) | > 100 µM (inactive) | 27.1 µM (inactive) | 68.2 µM (inactive) | > 100 µM (inactive) | – |
| CC1C(c2ccccc2)NC(c2ccccc2)CC1(N)C#N (stereo unspecified) | > 100 | > 100 µM (inactive) | > 100 µM (inactive) | > 100 µM (inactive) | > 100 µM (inactive) | > 100 µM (inactive) | > 100 µM (inactive) | > 100 µM (inactive) | > 100 µM (inactive) | > 100 µM (inactive) | > 100 µM (inactive) | > 100 µM (inactive) | 63.1 µM (inactive) | 38.8 µM (inactive) | > 100 µM (inactive) | 48 µM (inactive) | > 100 µM (inactive) | > 100 µM (inactive) | – |
| [O-][S+](CC1(O)CCCCC1)c1ccccc1 (stereo unspecified) | > 100 | > 100 µM (inactive) | > 100 µM (inactive) | > 100 µM (inactive) | > 100 µM (inactive) | – | > 100 µM (inactive) | > 100 µM (inactive) | – | > 100 µM (inactive) | > 100 µM (inactive) | > 100 µM (inactive) | > 100 µM (inactive) | > 100 µM (inactive) | > 100 µM (inactive) | > 100 µM (inactive) | > 100 µM (inactive) | > 100 µM (inactive) | < 0.01 µM (active) |
| CCC1(CC)C(=O)N(C(=O)c2ccccc2)N(C(=O)c2ccc(Cl)cc2)C1=O | 72.3 | > 75 µM (inactive) | 16.5 µM (inactive) | > 75 µM (inactive) | > 75 µM (inactive) | – | > 75 µM (inactive) | 12.7 µM (inactive) | > 75 µM (inactive) | > 75 µM (inactive) | 25.4 µM (inactive) | 59.3 µM (inactive) | 58.6 µM (inactive) | > 75 µM (inactive) | > 75 µM (inactive) | > 75 µM (inactive) | 36.2 µM (inactive) | > 75 µM (inactive) | 20 µM (inactive) |
| CC1(C)CC[C@]2(C(=O)O)CC[C@]3(C)C(=CC[C@@H]4[C@@]5(C)CC[C@H](OC6OC(CO)C(O)C(O)C6O)C(C)(C)[C@@H]5CC[C@]43C)[C@@H]2C1 (stereo partly specified) | 2.75 | 1.77 µM (inactive) | 2.34 µM (inactive) | 1.68 µM (inactive) | 1.75 µM (inactive) | – | 1.98 µM (inactive) | 2.22 µM (inactive) | 1.61 µM (inactive) | 1.75 µM (inactive) | 1.45 µM (inactive) | 1.68 µM (inactive) | 1.62 µM (inactive) | 1.75 µM (inactive) | 2.3 µM (inactive) | 1.69 µM (inactive) | 1.82 µM (inactive) | 1.93 µM (inactive) | 2.61 µM (inactive) |

— ChEMBL document CHEMBL1201862, “PubChem BioAssay data set” (2004)
